Assays:
[1] = molecular target: T1, EGF-R wt (Homo sapiens, UniProt P00533); experiment: EGFR-wt protein kinase assay (33PanQinase), single concentration; format: biochemical; details: 0.5 μM (5 × 10^−7 M), singlicate, % of control activity; for remaining activity at 0.5 µM: read-out: Residual activity under 0.5 μM drug concentration (%) EGF-R wt
T1 construct: purchased ProQinase GmbH
Procedure: (§1) The inhibitory profile of 16 compounds was determined using two protein kinases. The compounds were tested at a concentration of 5 × 1 0^−7 M, in singlicate. The compounds were solved and diluted to 5 × 10^−5 M stock solutions in 100% DMSO according to the customer-filled CSF. 10 μL of each of the stock solutions were transferred into […] of a 96-well, Column 1 and 2 of the plate were filled with 10 μL100% DMSO. The plate is in the following referred to as “copy plate”. In the process, 90 μL H2O were added to each well of the copy plate. To minimize potential compound precipitation, the H2O was added to each well only a few minutes before the transfer of the compound solutions into the assay plates. The plate was shaken thoroughly, resulting in a “compound dilution plate” with a compound concentration of 5 × 10^−6 M/10% DMSO. This plate was used for the transfer of 5 μL compound solution into the assay plates. The final volume of the assay was 50 μL. All compounds were tested at 5 × 1 0^−7 M in singlicate. The final DMSO concentration in the reaction cocktails was 1% in all cases. The compound dilution plate was disposed.
(§2) A radiometric protein kinase assay (33PanQinase® Activity Assay) was used for measuring the kinase activity of the two protein kinases. All kinase assays were performed in 96-well FlashPlatesTM from PerkinElmer (Boston, MA, USA) in a 50 μL reaction volume. The reaction cocktail was pipetted in 4 steps in the following order: 20 μL of assay buffer, 5 μL of ATP solution (in H2O), 5 μL of test compound (in 10% DMSO), 20 μL enzyme/subtrate mix. The assay for both protein kinases contained 70 mM HEPES-NaOH pH 7.5, 3 mM MgCl2, 3 mM MnCl2, 3 μM Na-orthovanadate, 1.2 mM DTT, ATP. The assay for ERBB2 additionally contained 50 μg/mLPEG20000. The reaction cocktails were incubated at 30 °C for 60 min. The reaction was stopped with 50 μL of 2% (v/v) H3PO4, plates were aspirated and washed two times with 200 μL 0.9% (w/v) NaCl. Incorporation of 33Pi was determined with a microplate scintillation counter (Microbeta, Wallac). All assays were performed with a BeckmanCoulter/SAGIAN™Core System. The median value of the counts in column 1 (n = 8) of each assay plate was defined as “low control”. This value reflects unspecific binding of radioactivity to the plate in the absence of a protein kinase but in the presence of the substrate. The median value of the counts in column 2 of each assay plate (n = 8) was taken as the “high control”. As part of the data evaluation the low control value from a particular plate was subtracted from the high control value as well as from all 80 “compound values” of the corresponding plate. The residual activity (in %) for each well of a particular plate was calculated by using the following formula: Res. Activity (%) = 100 × [(cpm of compound – low control)/(high control − low control)]

[2] = molecular target: T2, HER2 (Homo sapiens, UniProt P04626); experiment: HER2 protein kinase assay (33PanQinase), single concentration; format: biochemical; details: 0.5 μM (5 × 10^−7 M), singlicate, % of control activity; for remaining activity at 0.5 µM: read-out: Residual activity under 0.5 μM drug concentration (%) HER2
T2 construct: purchased ProQinase GmbH
Procedure: as §1, §2

remaining activity at 0.5 µM [1] [%]	remaining activity at 0.5 µM [2] [%]	Molecule	Residual activity under 0.5 μM drug concentration (%) EGF-R wt [1] [%]	Residual activity under 0.5 μM drug concentration (%) HER2 [2] [%]
86	100	COc1cc2c(cc1Nc1ncc(C#N)c(Nc3ccc(OCc4ccccn4)cc3)n1)N(C(=O)/C=C/CN(C)C)CC1(CC1)O2 [Compound C1, (2E)-4-{6-[(5-cyano-4-{[4-(pyridin-2-ylmethoxy)phenyl]amino}pyrimidin-2-yl)amino]-7-methoxyspiro[1,4-benzoxazine-2,1′-cyclopropane]-4-yl}-1-(dimethylamino)-4-oxobut-2-en-2-yl]		
76	108	COc1cc2c(cc1Nc1ncc(C#N)c(Nc3ccc(OCc4ccccn4)c(Cl)c3)n1)N(C(=O)/C=C/CN(C)C)CC1(CC1)O2 [Compound C2, (2E)-4-{6-[(4-{[3-chloro-4-(pyridin-2-ylmethoxy)phenyl]amino}-5-cyanopyrimidin-2-yl)amino]-7-methoxyspiro[1,4-benzoxazine-2,1′-cyclopropane]-4-yl}-1-(dimethylamino)-4-oxobut-2-en-2-yl]		
79	111	COc1cc2c(cc1Nc1ncc(C#N)c(Nc3ccc(OCc4ccccc4)c(Cl)c3)n1)N(C(=O)/C=C/CN(C)C)CC1(CC1)O2 [Compound C3, (2E)-4-{6-[(4-{[4-(benzyloxy)-3-chlorophenyl]amino}-5-cyanopyrimidin-2-yl)amino]-7-methoxyspiro[1,4-benzoxazine-2,1′-cyclopropane]-4-yl}-1-(dimethylamino)-4-oxobut-2-en-2-yl]		
85	100	COc1cc2c(cc1Nc1ncc(C#N)c(Nc3cnn(Cc4ccccn4)c3)n1)N(C(=O)/C=C/CN(C)C)CC1(CC1)O2 [Compound C4, (2E)-4-{6-[(5-cyano-4-{[1-(pyridin-2-ylmethyl)pyrazol-4-yl]amino}pyrimidin-2-yl)amino]-7-methoxyspiro[1,4-benzoxazine-2,1′-cyclopropane]-4-yl}-1-(dimethylamino)-4-oxobut-2-en-2-yl]		

Continued, molecule first:

Molecule	remaining activity at 0.5 µM [1] [%]	remaining activity at 0.5 µM [2] [%]	Residual activity under 0.5 μM drug concentration (%) EGF-R wt [1] [%]	Residual activity under 0.5 μM drug concentration (%) HER2 [2] [%]
COc1cc2c(cc1Nc1ncc(C#N)c(Nc3ccc(OCc4ccccn4)cc3)n1)N(C(=O)/C=C/CN(C)C)CC21CC1 [Compound B1, (2E)-4-{6′-[(5-cyano-4-{[4-(pyridin-2-ylmethoxy)phenyl]amino}pyrimidin-2-yl)amino]-5′-methoxyspiro[cyclopropane-1,3′-indole]-1′-yl}-1-(dimethylamino)-4-oxobut-2-en-2-yl]	92	103		
COc1cc2c(cc1Nc1ncc(C#N)c(Nc3ccc(OCc4ccccn4)c(Cl)c3)n1)N(C(=O)/C=C/CN(C)C)CC21CC1 [Compound B2, (2E)-4-{6′-[(4-{[3-chloro-4-(pyridin-2-ylmethoxy)phenyl]amino}-5-cyanopyrimidin-2-yl)amino]-5′-methoxyspiro[cyclopropane-1,3′-indole]-1′-yl}-1-(dimethylamino)-4-oxobut-2-en-2-yl]	97	100		
COc1cc2c(cc1Nc1ncc(C#N)c(Nc3ccc(OCc4ccccc4)c(Cl)c3)n1)N(C(=O)/C=C/CN(C)C)CC21CC1 [Compound B3, 4-{[4-(benzyloxy)-3-chlorophenyl]amino}-2-({1′-[(2E)-4-(dimethylamino)but-2-enoyl]-5′-methoxy-1′,2′-dihydrospiro[cyclopropane-1,3′-indole]-6′-yl}amino)pyrimidine-5-carbonitrile]	95	102		
C=CC(=O)N1CC2(CC2)c2cc(OC)c(Nc3ncc(C#N)c(Nc4ccc(OCc5ccccn5)cc4)n3)cc21 [Compound B4, 3-{6′-[(5-cyano-4-{[4-(pyridin-2-ylmethoxy)phenyl]amino}pyrimidin-2-yl)amino]-5′-methoxyspiro [cyclopropane-1, 3′-indole]-1′-yl}-3-oxoprop-1-en-2-yl]	87	99		
C=CC(=O)N1CC2(CCN(C)CC2)c2cc(OC)c(Nc3ncc(C#N)c(Nc4ccc(OCc5ccccc5)c(Cl)c4)n3)cc21 [Compound A3, 4-{[4-(benzyloxy)-3-chlorophenyl]amino}-2-{[5-methoxy-1′-methyl-1-(prop-2-enoyl)-1,2-dihydrospiro[indole-3,4′-piperidine]-6-yl]amino}pyrimidine-5-carbonitrile]	19	12		
CCOc1cc2ncc(C#N)c(Nc3ccc(OCc4ccccn4)c(Cl)c3)c2cc1NC(=O)/C=C/CN(C)C [Neratinib, reference compound]		6		
(2E)-4-{6′-[(5-cyano-4-{[1-(pyridin-2-ylmethyl)pyrazol-4-yl]amino} pyrimidin-2-yl)amino]-5′-methoxyspiro[cyclopropane-1,3′-indole]-1′-yl}-1-(dimethylamino)-4-oxobut-2-en-2-yl trifluoroacetate [Compound B6]			94	113
C=CC(=O)N1CC2(CC2)c2cc(OC)c(Nc3ncc(C#N)c(Nc4cnn(Cc5ccccn5)c4)n3)cc21 [Compound B7, 3-{6′-[(5-cyano-4-{[1-(pyridin-2-ylmethyl)pyrazol-4-yl]amino}pyrimidin-2-yl)amino]-5′-methoxyspiro[cyclopropane-1,3′-indole]-1′-yl}-3-oxoprop-1-en-2-yl]	89	135		
C=CC(=O)N1CC2(CCN(C)CC2)c2cc(OC)c(Nc3ncc(C#N)c(Nc4cnn(Cc5ccccn5)c4)n3)cc21 [Compound A4, 2-{[5-methoxy-1′-methyl-1-(prop-2-enoyl)-1,2-dihydrospiro[indole-3,4′ -piperidine]-6-yl]amino}-4-{[1-(pyridin-2-ylmethyl)-1H-pyrazol-4-yl]amino}pyrimidine-5-carbonitrile]	20 to 60	34	27	

Reference: publication PMC6691816, “Discovery of aminopyridine-containing spiro derivatives as EGFR mutations inhibitors” (Journal of Enzyme Inhibition and Medicinal Chemistry, 2019)
